# Data published in US6500821B1, “4-amino-1-aryl-1,5-dihydropyrrol-2-ones and process for making” (Arzneimittelwerk Dresden GmbH, priority 1999, dated 2002).
# Key:
# maximal electroshock [1] = test: Anticonvulsive action, maximal electroshock (MES), mouse i.p.; type: in vivo; conditions: ip, dose 300 mg/kg, read-out: Action, % of the protected animals
# Procedure: (§1) Compounds according to the present invention were tested in vivo for their anticonvulsive action as shown in Table 1 in mice by i.p. administration, or in rats administered orally according to the internationally customary standard (Pharmac. Weekblad, Sc.Ed. 14 132 (1992) and Antiepileptic Drugs, Third Ed., Raven Press, New York 1989). [table]
# s.c. pentetrazole = test: Anticonvulsive action, s.c. pentetrazole (PTZ), mouse i.p.; type: in vivo; conditions: ip, read-out: Action, % of the protected animals
# Procedure: as §1
# [2] = Octanol/water partition coefficient; type: physicochemical; conditions: read-out: log P (octanol/water partition coefficient)
# maximal electroshock [3] = test: Maximal electroshock, rat p.o.; type: in vivo; conditions: po
# Procedure: as §1, with “1989).” for “1989). [table]”
# (§2) Analogous results were obtained for oral action.
# [4] = system: pentetrazol convulsion model; test: Pentetrazol convulsion model, rat p.o.; type: in vivo; conditions: po
# Procedure: as §1, with “1989).” for “1989). [table]”
# as §2
# neurotoxicity = test: Neurotoxicity, rat; type: in vivo
# Procedure: as §1, with “1989).” for “1989). [table]”
# as §2
# Vogel Conflict Test = test: Vogel Conflict Test; type: in vivo, rat
# Source text: In this model, continuous access to drinking water is withheld from rats for a certain time. After this period, free access is given to drinking water, but is coupled with a mild electrical stimulation. The conflict for the animals is between accepting the electrical stimulation or going without a drink.
# The reactions to a conflict situation of this type are similar to the secondary phenomena of anxiety in man. The resulting avoidance reactions can be suppressed by anxiolytic substances. As a measure of the anxiolytic action, the number of tolerated current pulses of the animals treated with the test substance is assessed in comparison to the vehicle-treated control group.
# elevated maze test = test: Elevated maze test; type: in vivo, mouse; conditions: for Activity in % (length of stay in the open arms, control = 100): mouse, intraperitoneal
# Source text: In this model, mice are placed in an elevated passage system with open and closed arms as described by Pellow, S., Chopin, P., File S. E., Briley, M.: Validation of open: closed arm entries in an elevated plus-maze as a measure of anxiety in rats. J. of Neuroscience Methods 14: 149-167, 1985; Hogg, S.: A review of the validity and variability of the elevated plus-maze as an animal model of anxiety. Pharmacology Biochemistry and Behavior: 21-30, 1996. Untreated animals repeatedly try the closed passages. The inhibition of anxiety is measured by the length of stay in the open arms as a percentage of the total length of stay.
smiles,measurement,setting,value
"COc1ccc(N2CC(N3CCOCC3)=CC2=O)cc1 [Compound 7, 1-(4-methoxyphenyl)-4-morpholin-4-yl-1,5-dihydropyrrol-2-one]",responders at 300 mg/kg,maximal electroshock [1],0%
same,responders at 300 mg/kg,s.c. pentetrazole,80%
same,logP,[2],0.74
same,melting point,,198 to 202 °C
"Cc1cccc(N2CC(N3CCCCC3)=CC2=O)c1 [Compound 12, 1-(3-methylphenyl)-4-piperidin-1-yl-1,5-dihydropyrrol-2-one]",responders at 300 mg/kg,maximal electroshock [1],0%
same,responders at 300 mg/kg,s.c. pentetrazole,0%
same,logP,[2],2.66
same,melting point,,117 to 123 °C
"O=C1C=C(N2CCOCC2)CN1c1ccc(Cl)cc1 [1-(4-chlorophenyl)-4-morpholin-4-yl-1,5-dihydropyrrol-2-one]",ED50,maximal electroshock [3],19 mg/kg
same,ED50,[4],11 mg/kg
same,NT50 neurotoxicity,neurotoxicity,> 500 mg/kg
"O=C1C=C(N2CCOCC2)CN1c1ccc(Cl)cc1 [Compound 4, 1-(4-chlorophenyl)-4-morpholin-4-yl-1,5-dihydropyrrol-2-one]",responders at 300 mg/kg,maximal electroshock [1],0%
same,responders at 30 mg/kg,s.c. pentetrazole; dose 30 mg/kg,100%
same,logP,[2],1.91
same,therapeutic index,Vogel Conflict Test; Vogel Conflict Test,> 50
same,Changed number of impulses to the control in %,"Vogel Conflict Test; rat, 3 mg/kg p.o.",102%
same,Changed number of impulses to the control in %,"Vogel Conflict Test; rat, 10 mg/kg p.o.",174%
same,dose from which an anxiolytic action was detected / equally effective dose,"Vogel Conflict Test; rat, p.o.",10 mg/kg
same,therapeutic index,elevated maze test; elevated maze test,> 50
same,proportionate length of stay in the open arms (in words),elevated maze test; intraperitoneal administration,significantly increased
same,"Activity in % (length of stay in the open arms, control = 100)",elevated maze test; 1 mg/kg,128 (p < 0.05) %
same,"Activity in % (length of stay in the open arms, control = 100)",elevated maze test; 3 mg/kg,110%
same,"Activity in % (length of stay in the open arms, control = 100)",elevated maze test; 10 mg/kg,158 (p < 0.05) %
same,"Activity in % (length of stay in the open arms, control = 100)",elevated maze test; 30 mg/kg,129%
